According to patent US12459951B2, “Compounds that interact with RAS superfamily proteins for treatment of cancers, inflammatory diseases, rasopathies, and fibrotic disease” (SHY Therapeutics, LLC, priority 2022, dated 2025):
Blank lines part the entries; values can stand above or below the molecule they belong to.

Experiments:
[1] = system: MM.1R (expressing wild type KRAS); assay: Proliferation Assay (Cell Viability Assay); assay type: cell-based; conditions: Homo sapiens, read-out: MM.1R IC50 (nM) Multiple Myloma
In short: (§1)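 Cells plated at 2000–5000/well overnight, then treated 2–4 days at 37 °C, 5% CO2 with compound at 10 μM single dose or serial dilutions for IC50, in 0.3% DMSO and 10% FBS. Viability read by CellTiter 96 Aqueous One (MTS); % proliferation inhibition calculated from raw data.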

[2] = system: BT-549 (expressing wild type KRAS); assay: Proliferation Assay (Cell Viability Assay); assay type: cell-based; conditions: Homo sapiens, BT-549; Proliferation assay, BT549; read-out: BT549 IC50 (nM) TNBC
In short: as §1

[3] = system: GP2d (expressing KRas G12D mutant); assay: Proliferation Assay (Cell Viability Assay); assay type: cell-based; conditions: Homo sapiens, Proliferation assay, read-out: GP2d IC50 (nM) Colorectal
In short: as §1

[4] = system: active/cleaved caspase 6; assay: Cell-based caspase activation assay (western blot); design: species or system human
Protocol: (§2) Biological Example 4: Puma Expression and Caspases Activation Assay
(§3) Protocols for Cell-Based Puma Expression and Caspase Activation Assays
(§4) Cell lines: All human tumor-derived cancer cell lines were purchased from American Type Culture Collection. Human tumor-derived cancer cell lines Panc-1 (expressing KRas G12D mutant), MiaPaca-2 (expressing KRas G12C mutant), A549 (expressing KRas G12S mutant), and A375 (expressing wild type KRas) were grown in complete DMEM-High Glucose medium and NCI-H1975 (expressing wild type KRas), MM.1R (expressing wild type KRas) and IM.9 (expressing wild type KRas) were grown in RPMI1640 medium. Human tumor-derived cancer cell line BT-549 (expressing wild type KRas) was grown in RPMI1640 medium with 11.8U insulin. All mediums were supplemented with penicillin (100 U/mL), streptomycin (100 μg/mL), and 10% heat-inactivated FBS at 37° C. in a humidified incubator with 5% CO2.
(§5) Method: Cells were plated at 300,000 to 800,000 cells/well density in a 6-well plate in the presence of 10% FBS. The next day small molecules to be tested were added to the cells in the final concentration of 3 μM in the presence of 0.3% DMSO for 48 hours incubation at 37° C. For IC50 value determination, serial dilutions of compounds were added to cells under the same conditions. Following 48 hours of incubation cells were lysed with lysis buffer containing 1% Triton X-100, EDTA, and Halt™ Protease & Phosphatase Inhibitor Cocktail (Thermo Scientific). Protein concentration was assessed by BCA protein assay (Thermo Scientific). Increase expression of PUMA and active/cleaved forms of caspase 3, caspase 6 and caspase 9 were detected by western blot.
(§6) Western blot protocol: Equal amounts of protein (15-50 μg) were separated by SDS-PAGE and transferred to nitrocellulose membranes (Invitrogen by Thermo Fisher Scientific). The membrane was stained with Ponceau S Stain (Boston BioProducts) to verify uniform protein loading. Membranes were blocked with 10% milk and expression levels of PUMA was assessed by incubating overnight at 4° C. with the antibody PUMA (D30C10) from Cell Signaling Technology (#12450) and active/cleaved forms of caspase 3, caspase 6 and caspase 9 by incubating overnight at 4° C. with the following antibodies: cleaved caspase-3 (Asp175) (5A1E), cleaved caspase-6 (Asp162) and cleaved caspase-9 (Asp330) (D2D4) (all antibodies from Cell Signaling Technology). Then the membranes were incubated with HRP-conjugated secondary antibody (Jackson Immunoresearch, West Grove, PA). Bands were incubated in Amersham ECL Prime Western Blotting Detection Reagent (GE Healthcare) and visualized using the ChemiDoc MP imaging system (Bio-Rad).

[5] = system: active/cleaved caspase 3; assay: Cell-based caspase activation assay (western blot); design: species or system human
Protocol: as §2, §3, §4, §5, §6

[6] = system: active/cleaved caspase 9; assay: Cell-based caspase activation assay (western blot); design: species or system human
Protocol: as §2, §3, §4, §5, §6

[7] = system: PUMA expression; assay: Cell-based Puma expression assay (western blot); design: species or system human
Protocol: as §2, §3, §4, §5, §6

IC50 [1]: < 1 nM
IC50 [2]: 1 to 10 nM
Structure (SMILES): Cc1c(-c2ccn(C(C)C)n2)cn2nc(-c3nccn3C)nc(Nc3ccn(C4CC4)n3)c12 [Compound 84, N-(1-Cyclopropyl-1H-pyrazol-3-yl)-6-(1-isopropyl-1H-pyrazol-3-yl)-5-methyl-2-(1-methyl-1H-imidazol-2-yl)pyrrolo[2,1-f][1,2,4]triazin-4-amine]
IC50 [3]: 1 to 10 nM

IC50 [2]: 1 to 10 nM
Structure (SMILES): Cc1c(-c2ccn(C(C)C)n2)cn2nc(-c3nccn3C)nc(Nc3cc4n(n3)CCO4)c12 [Compound 91, N-(6-(1-Isopropyl-1H-pyrazol-3-yl)-5-methyl-2-(1-methyl-1H-imidazol-2-yl)pyrrolo[2,1-f][1,2,4]triazin-4-yl)-2,3-dihydropyrazolo[5,1-b]oxazol-6-amine]
Caspase 6 activation ([4]; A549, after 48 hours): yes
Caspase 6 activation ([4]; BT-549, after 48 hours): yes
Caspase 6 activation ([4]; MiaPaca2, after 48 hours): yes
Caspase 3 activation ([5]; A549, after 48 hours): yes
Caspase 3 activation ([5]; BT-549, after 48 hours): yes
Caspase 3 activation ([5]; MiaPaca2, after 48 hours): yes
Caspase 9 activation ([6]; A549, after 48 hours): yes
Caspase 9 activation ([6]; BT-549, after 48 hours): yes
Caspase 9 activation ([6]; MiaPaca2, after 48 hours): yes
Increased PUMA expression ([7]; A549, after 48 hours): yes
Increased PUMA expression ([7]; BT-549, after 48 hours): yes
Increased PUMA expression ([7]; MiaPaca2, after 48 hours): yes
